“Also recorded” adds a separate entry of the source.
Key:
[1] = test system: A375SM-Luc705-B cells; experiment: Luciferase splice-correction assay with peptide-oligonucleotide conjugates; assay type: cell-based; conditions: for luciferase expression: dose-response and mismatch control studies, luciferase after 48 h
Method: Cell Lines and Plasmids: A375SM melanoma cells were obtained from Dr. J. Bear (University of North Carolina, Chapel Hill, N.C., United States of America), and were cultured in Dulbecco's minimum essential medium (DMEM; Invitrogen, Carlsbad, Calif., United States of America) supplemented with L-glutamine and 10% fetal bovine serum (FBS). Plasmid pLuc/705, containing an aberrant intron inserted into the firefly luciferase coding sequence, was obtained from Dr. R. Kole (University of North Carolina, Chapel Hill, N.C., United States of America). See Kang et al. (1998) Biochemistry, 37, 6235-6239. Stable transfectants were obtained by cotransfecting A375SM cells with one part of hygromycin resistant plasmid pcDNA3.1(+)/hygro (Invitrogen, Carlsbad, Calif., United States of America) and ten parts of pLuc/705 using LIPOFECTAMINE™ 2000 (Invitrogen, Carlsbad, Calif., United States of America) as per manufacturer's instructions. Selection was carried out in DMEM containing 200 μg/mL hygromycin and 10% FBS. The resulting pool of hygromycin resistant cells was referred to as A375SM-Luc705-B.
Oligonucleotide treatment and luciferase assay: A375SM-Luc705-B cells were plated on 12 well plates (at 1.0 or 1.5×10^5 cells per well in various experiments) in DMEM supplemented with 10% FBS. The following day, medium was changed to reduced serum OPTI-MEM I (Invitrogen, Carlsbad, Calif., United States of America). […] Four hours after treatment, 1% FBS was added to each well. Twenty four hours after oligonucleotide treatment, medium was replaced with DMEM containing 1% FBS, and at various times thereafter cell lysates were collected for luciferase assay.
Cells were usually harvested 48 hours after oligonucleotide treatment, or at times indicated in the figures, and activity determined using a Luciferase assay kit (Promega, Madison, Wis., United States of America). Measurements were performed on a Monolight 2010 instrument (Analytical Luminescence Laboratory, San Diego, Calif., United States of America).

[2] = test system: A375SM-Luc705-B cells; experiment: Luciferase splice-correction assay with albumin conjugates; assay type: cell-based
Method: Oligonucleotide Treatment of Cells and Luciferase Assay: A375SM-Luc705-B cells were seeded onto 12 well plates at 1×10^5 cells per well in medium containing 10% FBS. […] After 4 h of treatment, FBS was added to each well to 1%. After 24 h, cells were washed with DMEM medium containing 10% FBS and incubated in DMEM supplemented with 1% FBS for 48 h prior to harvest.

[3] = test system: A375SM-Luc705-B cells; experiment: Subcellular distribution and co-localization by confocal fluorescence microscopy (peptide conjugate); assay type: cell-based; conditions: for co-localization with dextran / co-localization with transferrin: 2 h; for co-localization with dextran / co-localization with transferrin / co-localization with transferrin or dextran markers: live cells, 100 nM; for co-localization with transferrin or dextran markers: 24 h
From the text: (§1) Cell Uptake, Confocal Fluorescence Microscopy, and Flow Cytometry: Total cellular uptake of Tamra-labeled oligonucleotides was monitored using a Nanodrop microfluorimeter (Nanodrop Technologies, Wilmington, Del., United States of America). After treatment with oligonucleotides the cells were lysed in a mild non-ionic detergent buffer and the Tamra fluorescence (emission 583 nm) was quantitated based on a linear standard curve of unconjugated Tamra in buffer. Intracellular distribution of Tamra-labeled oligonucleotides was examined using an Olympus Confocal FV300 fluorescent microscope (Olympus America Inc., Center Valley, Pa., United States of America) with 60X-oil immersion objective, as previously described. See Astriab-Fisher et al. (2004) Biochem. Pharmacol., 68, 403-407. Expression levels of αvβ3 were monitored by immunostaining with an anti-human-αvβ3 monoclonal (Chemicon, Temecula, Calif., United States of America) followed by an Alexa 488 rabbit antimouse secondary antibody, with analysis by flow cytometry using a DakoCytomation (Glostrop, Denmark) machine.

[4] = test system: A375SM-Luc705-B cells; experiment: Total cellular uptake of Tamra-labeled oligonucleotides (microfluorimeter); assay type: cell-based; conditions: for cell viability: 1-10 mM β-cyclodextrin, 0.2-20 μM cytochalasin D; for effect on uptake of the RGD-oligonucleotide conjugate: inhibitor 15 min before 100 nM RGD-623-Tamra, uptake after 4 h
From the text: as §1

[5] = test system: A375SM-Luc705-B cells; experiment: Total cellular accumulation of albumin conjugates (fluorimeter); assay type: cell-based; conditions: nontoxic concentrations, 30 min prior to 100 nM conjugate, 4 h
Method: Cellular Uptake and Confocal Microscopy: Cells were seeded onto either 12 well plates at 1×10^5 cells per well for cellular uptake measurements or in 12 well glass-bottom plates at 2×10^4 cells per well for live cell analysis by confocal microscopy. […], the cells were either lysed for measurement of Tamra fluorescence using a Nanodrop microfluorimeter (Nanodrop Technologies, Wilmington, Deleware, United States of America) or washed with DMEM containing 10% FBS and then placed in DMEM without phenol red, supplemented with 1% FBS, for confocal microscopy analysis. Co-localization of Tamra-labeled oligonucleotides with Alexa 488 labeled Transferrin or Dextran (Molecular Probes, Beaverton, Oreg., United States of America) in live cell was also examined by confocal microscopy. An Olympus confocal microscope with a 60× objective lens was used, and the data were processed using Fluoview software (Olympus, Center Valley, Pa., United States of America) as described in Example 1.

[6] = test system: A375SM-Luc705-B cells; experiment: Short-term toxicity, viable cell count after 48 h (peptide conjugate); assay type: cell-based
Method: Toxicity Studies: Cells were treated with various concentrations of oligonucleotides or conjugates under the same conditions as used for the luciferase induction experiments. After 48 h in medium plus 1% FBS, cells were trypsinized and viable cells were counted in an electronic particle counter.

[7] = test system: αvβ3; experiment: Cell surface αvβ3 level by immunostaining and flow cytometry; assay type: cell-based, human; conditions: 200 nM, 24 h exposure
Method: Then, αvβ3 levels were determined by immunostaining with anti-αvβ3 antibody. […] The y axis of each panel indicates the number of cells, while the x axis indicates the log of fluorescence intensity.
as §1

[8] = test system: αvβ3-negative M21− human melanoma cells; experiment: Total cellular uptake in αvβ3-negative cells; assay type: cell-based; conditions: 12.5-100 nM
From the text: (§2) Results represent means and standard errors of triplicate determinations and are expressed as RFUs per microgram cell protein.
as §1

[9] = Re-dissolution of lyophilized conjugate in sterile water; assay type: physicochemical; conditions: after dialysis and lyophilization
From the text: The peptide conjugation reaction occurred between the maleimide of the bicyclic RGD peptide and the 5′ thiol (—SH) of the oligonucleotide (2). The reaction proceeded efficiently and more than 95% of the starting oligonucleotide (2) was converted into conjugates with bicyclic RGD. The conjugates were purified by ion-exchange chromatography (Resource™ Q column, GE Healthcare, Chalfont St. Giles, United Kingdom) under highly denaturing conditions to avoid any sort of precipitation, although this was not expected to be a problem for this type of peptide. […] Similar approaches were used for the preparation of other oligonucleotides and conjugates. In each case the structure of the final product was confirmed by MALDI-TOF mass spectroscopy.

[10] = test system: αvβ3-positive M21+ human melanoma cells; experiment: Total cellular uptake in αvβ3-positive cells; assay type: cell-based; conditions: 12.5-100 nM
From the text: as §2, §1

[11] = listed as RGD-623-Tamra conjugate

5′-GTAATTATTTATAATCGTCC-Tamra-3′ [5MM623-Tamra]
luciferase expression [1]: failed to produce an increase in luciferase expression

5′-GTTATTCTTTAGAATGGTGC-3′ (antisense GTTATTCTTTAGAATGGTGC; all 2'-O-methyl, all phosphorothioate, T or U not given here; further chemistry not fully specified) [compound 623]
influence of the Tamra fluorophore on the action of 623 ([1]; RGD conjugate or lipofection, concentrations up to 75 nM): did not affect the action of 623
influence of the Tamra fluorophore on the action of 623 ([1]; concentrations above 100 nM): slight augmentation of effect by Tamra
luciferase activity ([2]; 25-200 nM, 72 h): did not cause a significant increase in luciferase activity

CC(C)[C@@H]1NC(=O)[C@@H](Cc2ccccc2)NC(=O)[C@H](CC(=O)O)NC(=O)CNC(=O)[C@H](CCCN=C(N)N)NC1=O [RGDfV]
effect of co-incubation on cell associated fluorescence of RGD-623-Tamra conjugate ([3]; data not shown): substantially reduced total cell associated fluorescence
inhibition of the effect of RGD-623-Tamra on luciferase expression ([1]; 0.1-100 μM peptide 30 min prior to 200 nM conjugate, 48 h): progressive inhibition
effect of co-incubation on the increased uptake of the RGD-conjugate ([4]; excess peptide): could be blocked
toxicity of the blocking peptide ([2]; at the concentrations used): does not cause cell detachment or other obvious toxicity
effect on the ability of the RPA-623 conjugate to activate luciferase ([2]; excess peptide (0.1-10 μM) 30 min prior to 100 nM conjugate, 48 h): completely blocks
effect on cellular accumulation of RPA-623-Tamra [5]: inhibited

C=C1[C@@H](C)[C@H]2[C@H](Cc3ccccc3)NC(=O)[C@]23[C@H](OC(C)=O)/C=C/[C@@](C)(O)C(=O)[C@@H](C)C/C=C/[C@H]3[C@@H]1O [cytochalasin D]
cell viability [4]: No loss of cell viability was detected
cell morphology ([4]; highest concentration): caused some cell rounding
effect on uptake of the RGD-oligonucleotide conjugate [4]: block the uptake
effect on cellular accumulation of RPA-623-Tamra [5]: inhibited

OC[C@H]1O[C@@H]2O[C@H]3[C@H](O)[C@@H](O)[C@@H](O[C@H]4[C@H](O)[C@@H](O)[C@@H](O[C@H]5[C@H](O)[C@@H](O)[C@@H](O[C@H]6[C@H](O)[C@@H](O)[C@@H](O[C@H]7[C@H](O)[C@@H](O)[C@@H](O[C@H]8[C@H](O)[C@@H](O)[C@@H](O[C@H]1[C@H](O)[C@H]2O)O[C@@H]8CO)O[C@@H]7CO)O[C@@H]6CO)O[C@@H]5CO)O[C@@H]4CO)O[C@@H]3CO [β-cyclodextrin]
cell viability [4]: No loss of cell viability was detected
effect on uptake of the RGD-oligonucleotide conjugate [4]: block the uptake
effect on cellular accumulation of RPA-623-Tamra [5]: inhibited

Bivalent-RGD-Mal-S—(CH2)6-5MM623-Tamra
luciferase expression [1]: failed to produce an increase in luciferase expression

BivalentRGD-Mal-S—(CH2)6-623-Tamra [RGD-623-Tamra]
co-localization with dextran [3]: Substantial overlap
co-localization with transferrin [3]: no overlap
co-localization with dextran [3, 11]: significant co-localization
co-localization with transferrin [3, 11]: no co-localization
co-localization with transferrin or dextran markers [3]: Substantial overlap
co-localization with transferrin or dextran markers [3, 11]: substantial co-localization
co-localization with caveolin-1 ([3]; between 2 and 6 h, fixed permeabilized cells, 50 nM): significant co-localization
co-localization with αvβ3 ([3]; early (6 h), fixed cells, 50 nM): Early co-localization
co-localization with other markers (EAA1, LAMP1, clathrin) ([3]; fixed cells): No significant co-localization
co-localization with trans-Golgi marker TG230 ([3]; late (24 h), fixed cells, 50 nM): some co-loacalization
cellular uptake seen by confocal microscopy ([3]; living cells, 200 nM, complex 100 nM): substantial cellular uptake was observed
nuclear fluorescence ([3]; living cells, 200 nM, complex 100 nM, listed as RGD-623-Tamra conjugate): no readily observable nuclear fluorescence; also recorded: generally free of fluorescence
concentration dependence of the luciferase effect [1]: rises rapidly between zero and 100 nM and then begins to plateau
time of maximum effect on luciferase expression ([1]; 200 nM, 48 h after removal of the oligonucleotide): 72 h
time course of the effect on luciferase expression ([1]; 24-120 h, conjugate 200 nM, complex 100 nM): rose gradually with time
concentration at which substantial effects on luciferase were observed ([1]; 48 h): 50 nM
low concentration at which significant effects were still observed ([1]; 48 h): 5 nM
luciferase expression [1]: produced a significant increase in luciferase expression
effect on luciferase relative to 623/cationic lipid complex ([1]; higher concentrations of RGD-623, complex at 100 nM oligonucleotide): approximately 50%
total cellular uptake compared to unconjugated oligonucleotide ([4]; 12.5, 50 or 100 nM, 4 h): ~2 fold
tolerability by cells ([6]; concentration range needed for splice correction): well-tolerated by cells
short-term toxicity (viable cells) ([6]; concentrations up to 1000 nM, 48 h): little effect
cell loss ([6]; higher concentrations): did not result in significant cell loss
cell rounding ([6]; higher concentrations): Some cell rounding was observed
level of surface αvβ3 expression [7]: no effect
level of surface αvβ3 expression ([7]; listed as RGD-623 conjugate): lack of down-regulation of αvβ3
uptake in M21− cells as compared to 623-Tamra control [8]: slightly greater uptake
re-dissolution in sterile water [9]: re-dissolved in sterile water without any difficulty
uptake by M21+ cells as compared to M21− cells [10]: about 3 times

Source: patent US20100280098A1, “RECEPTOR TARGETED OLIGONUCLEOTIDES” (priority 2007, published 2010)
